Experimental data from patent US12029739B2, “SHP2 inhibitor and use thereof” (KANAPH THERAPEUTICS INC., priority 2021, dated 2024).
Like-named read-outs stand apart in the source and are kept apart here.

How the values were obtained:
SHP2 (full length) = target: T1, SHP2 (full length) (Homo sapiens, UniProt Q06124); assay: Phosphatase assay (PTPase assay) with DiFMUP substrate; assay type: biochemical; details: SHP2 activated with SHP2 activating peptide; DiFMUP 80 μM, 2 hours; fluorescence; read-out: IC50 (PTPase aS say)
T1 construct: SHP2 (full length, diluted to 100 pM final concentration in reaction buffer, BPS bioscience, US); purchased BPS bioscience, US
T1 sequence (Q06124 1-593): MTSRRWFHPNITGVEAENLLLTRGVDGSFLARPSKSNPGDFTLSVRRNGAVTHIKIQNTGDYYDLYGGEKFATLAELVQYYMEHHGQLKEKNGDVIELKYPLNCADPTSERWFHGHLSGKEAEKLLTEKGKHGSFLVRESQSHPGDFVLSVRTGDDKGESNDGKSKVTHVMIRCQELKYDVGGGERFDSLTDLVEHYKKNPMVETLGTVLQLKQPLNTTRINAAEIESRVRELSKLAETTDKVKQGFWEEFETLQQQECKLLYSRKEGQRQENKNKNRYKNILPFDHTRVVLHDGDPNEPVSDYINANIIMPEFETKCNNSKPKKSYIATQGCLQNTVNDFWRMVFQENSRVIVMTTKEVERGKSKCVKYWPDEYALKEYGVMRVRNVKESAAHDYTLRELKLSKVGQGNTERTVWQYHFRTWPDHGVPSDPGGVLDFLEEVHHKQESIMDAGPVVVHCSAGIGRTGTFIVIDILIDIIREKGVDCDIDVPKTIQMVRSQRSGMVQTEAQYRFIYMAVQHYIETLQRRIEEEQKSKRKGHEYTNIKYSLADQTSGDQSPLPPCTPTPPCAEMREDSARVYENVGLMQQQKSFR

[1] = system: phospho-ERK in MIA PaCa2 or H358 cells; assay: Phospho-ERK assay (AlphaLisa); assay type: cell-based; details: MIA PaCa2 or H358 cells, compound incubated 1.5 hours, read-out: IC50 (p-ERK)

| SMILES | IC50 (SHP2 (full length)) [nM] | IC50 ([1]; 1.5 h) [nM] | IC50 [1] [nM] |
| --- | --- | --- | --- |
| COCCn1cnc2ccc(Sc3n[nH]c4nc(N5CCC6(CC5)CO[C@@H](C)[C@H]6N)cnc34)c(Cl)c2c1=O [Example 178, 6-((6-((3S,4S)-4-amino-3-methyl-2-oxa-8-azaspiro[4.5]decan-8-yl)-1H-pyrazolo[3,4-b]pyrazin-3-yl)thio)-5-chloro-3-(2-methoxyethyl)quinazolin-4(3H)-one] | < 3 | – | < 45 |
| COCCn1cnc2ccc(Sc3ccc(N4CCC5(CC4)CO[C@@H](C)[C@H]5N)cn3)c(Cl)c2c1=O [Example 181, 6-((5-((3S,4S)-4-amino-3-methyl-2-oxa-8-azaspiro[4.5]decan-8-yl)pyridin-2-yl)thio)-5-chloro-3-(2-methoxyethyl)quinazolin-4(3H)-one] | 3 to 100 | – | 45 to 1500 |
| COCCn1cnc2ccc(Sc3cnc(N4CCC5(CC4)CO[C@@H](C)[C@H]5N)n4ccnc34)c(Cl)c2c1=O [Example 182, 6-((5-((3S,4S)-4-amino-3-methyl-2-oxa-8-azaspiro[4.5]decan-8-yl)imidazo[1,2-c]pyrimidin-8-yl)thio)-5-chloro-3-(2-methoxyethyl)quinazolin-4(3H)-one] | 3 to 100 | – | 45 to 1500 |
| Cn1c(N2CCN(CCN)CC2)nc(N)c(-c2cccc(Cl)c2Cl)c1=O [Example 195] | > 100 | > 1500 | – |
| Cn1c(N2CCN[C@@H](CN)C2)nc(N)c(Sc2cccc(Cl)c2Cl)c1=O [Example 196] | > 100 | > 1500 | – |
| Cn1c(N2CCN[C@H](CN)C2)nc(N)c(Sc2cccc(Cl)c2Cl)c1=O [Example 197, (R)-6-amino-2-(3-(aminomethyl)piperazin-1-yl)-5-((2,3-dichlorophenyl)thio)-3-methylpyrimidin-4(3H)-one] | 3 to 100 | – | 45 to 1500 |
| Cn1c(N2CCOC(CN)C2)nc(N)c(Sc2cccc(Cl)c2Cl)c1=O (centres unmarked) [Example 198, 6-amino-2-(2-(aminomethyl)morpholino)-5-((2,3-dichlorophenyl)thio)-3-methylpyrimidin-4(3H)-one] | > 100 | > 1500 | – |
| Cn1c(N2CCN(CCCN)CC2)nc(N)c(Sc2cccc(Cl)c2Cl)c1=O [Example 199, 6-amino-2-(4-(3-aminopropyl)piperazin-1-yl)-5-((2,3-dichlorophenyl)thio)-3-methylpyrimidin-4(3H)-one] | > 100 | > 1500 | – |
| Cn1c(N2CCCN(CCN)CC2)nc(N)c(Sc2cccc(Cl)c2Cl)c1=O [Example 200, 6-amino-2-(4-(2-aminoethyl)-1,4-diazepan-1-yl)-5-((2,3-dichlorophenyl)thio)-3-methylpyrimidin-4(3H)-one] | > 100 | > 1500 | – |
| Cn1c(N2CCCN(CCCN)CC2)nc(N)c(Sc2cccc(Cl)c2Cl)c1=O [Example 201, 6-amino-2-(4-(3-aminopropyl)-1,4-diazepan-1-yl)-5-((2,3-dichlorophenyl)thio)-3-methylpyrimidin-4(3H)-one] | > 100 | > 1500 | – |
| CC(N)CN1CCN(c2nc(N)c(Sc3cccc(Cl)c3Cl)c(=O)n2C)CC1 (centres unmarked) [Example 202, 6-amino-2-(4-(2-aminopropyl)piperazin-1-yl)-5-((2,3-dichlorophenyl)thio)-3-methylpyrimidin-4(3H)-one] | > 100 | > 1500 | – |

The next lines start with results.

| IC50 (SHP2 (full length)) [nM] | IC50 ([1]; 1.5 h) [nM] | SMILES | IC50 [1] [nM] |
| --- | --- | --- | --- |
| < 3 | 45 to 1500 | COCCn1cnc2ccc(Sc3cnc(N4CCC5(CCC[C@H]5N)CC4)cn3)c(Cl)c2c1=O [Example 180, (R)-6-((5-(1-amino-8-azaspiro[4.5]decan-8-yl)pyrazin-2-yl)thio)-5-chloro-3-(2-methoxyethyl)quinazolin-4(3H)-one] | – |
| > 100 | 45 to 1500 | Cn1c(N2CCN(C[C@H](N)Cc3ccncc3)CC2)nc(N)c(Sc2cccc(Cl)c2Cl)c1=O [Example 186, (R)-6-amino-2-(4-(2-amino-3-(pyridin-4-yl)propyl)piperazin-1-yl)-5-((2,3-dichlorophenyl)thio)-3-methylpyrimidin-4(3H)-one] | – |
| > 100 | > 1500 | Cn1c(N2CCN(CC(N)Cc3cccnc3)CC2)nc(N)c(Sc2cccc(Cl)c2Cl)c1=O (centres unmarked) [Example 188, 6-amino-2-(4-(2-amino-3-(pyridin-3-yl)propyl)piperazin-1-yl)-5-((2,3-dichlorophenyl)thio)-3-methylpyrimidin-4(3H)-one] | – |
| > 100 | > 1500 | Cn1c(N2CCN(CC(N)CCc3ccccc3)CC2)nc(N)c(Sc2cccc(Cl)c2Cl)c1=O (centres unmarked) [Example 189, 6-amino-2-(4-(2-amino-4-phenylbutyl)piperazin-1-yl)-5-((2,3-dichlorophenyl)thio)-3-methylpyrimidin-4(3H)-one] | – |
| > 100 | > 1500 | Cn1c(N2CCN(CC(N)c3ccccc3)CC2)nc(N)c(Sc2cccc(Cl)c2Cl)c1=O (centres unmarked) [Example 190, 6-amino-2-(4-(2-amino-2-phenylethyl)piperazin-1-yl)-5-((2,3-dichlorophenyl)thio)-3-methylpyrimidin-4(3H)-one] | – |
| > 100 | > 1500 | Cn1c(N2CCN(C[C@@H](N)c3ccccc3)CC2)nc(N)c(Sc2cccc(Cl)c2Cl)c1=O [Example 191, (S)-6-amino-2-(4-(2-amino-2-phenylethyl)piperazin-1-yl)-5-((2,3-dichlorophenyl)thio)-3-methylpyrimidin-4(3H)-one] | – |
| > 100 | > 1500 | Cn1c(N2CCN(CCN)CC2)nc(N)c(Sc2ccnc(Cl)c2Cl)c1=O [Example 193, 6-amino-2-(4-(2-aminoethyl)piperazin-1-yl)-5-((2,3-dichloropyridin-4-yl)thio)-3-methylpyrimidin-4(3H)-one] | – |
| > 100 | > 1500 | Cn1c(N2CCN(CCN)CC2)nc(N)c(Sc2cccc(Cl)c2Cl)c1=O [Example 194, 6-amino-2-(4-(2-aminoethyl)piperazin-1-yl)-5-((2,3-dichlorophenyl)thio)-3-methylpyrimidin-4(3H)-one] | – |
